Consider 27 molecules from patent publication EP3755703B1, “N-(PHENYL)-2-(PHENYL)PYRIMIDINE-4-CARBOXAMIDE DERIVATIVES AND RELATED COMPOUNDS AS HPK1 INHIBITORS FOR TREATING CANCER” (Incyte Corporation, priority 2018, dated 2019).

The structures appear in SMILES notation.

The target of the assay is T1, HPK1 (Homo sapiens, UniProt Q92918).
T1 construct: purchased SignalChem M23-11G
T1 sequence (Q92918 1-346 limits assumed): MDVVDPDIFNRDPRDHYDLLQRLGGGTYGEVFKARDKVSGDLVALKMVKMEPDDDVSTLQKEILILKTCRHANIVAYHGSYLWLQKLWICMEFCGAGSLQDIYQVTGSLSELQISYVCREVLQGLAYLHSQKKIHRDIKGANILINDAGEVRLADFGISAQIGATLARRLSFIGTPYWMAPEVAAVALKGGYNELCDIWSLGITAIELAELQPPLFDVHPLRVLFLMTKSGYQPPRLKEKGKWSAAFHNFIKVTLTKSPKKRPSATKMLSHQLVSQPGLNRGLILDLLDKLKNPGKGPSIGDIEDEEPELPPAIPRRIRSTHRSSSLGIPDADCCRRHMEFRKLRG
The experiment in a line: HPK1 Kinase Binding Assay. The note with it: LanthaScreen tracer 222, one hour incubation at 25 °C. The method, then:
A stock solution of 1 mM test compound was prepared in DMSO. The compound plate was prepared by 3-fold and 11-point serial dilutions. 0.1 µL of the compound in DMSO was transferred from the compound plate to the white 384 well polystyrene plates. The assay buffer contained 50 mM HEPES, pH 7.5, 0.01% Tween-20, 5 mM MgCl2, 0.01% BSA, and 5 mM DTT. 5 µL of 4 nM active HPK1 (SignalChem M23-11G) prepared in the buffer was added to the plate. The enzyme concentration given was based on the given stock concentration reported by the vender. […] After one hour incubation at 25 °C, the plates were read on a PHERAstar FS plate reader (BMG Labtech). Ki values were determined.
Background: In TR-FRET formats the signal depends on donor and acceptor labels being close together.

One may read the Ki as a measure of affinity in units of concentration, obtained from inhibition or displacement.

On to `COc1cccc(F)c1-c1nccc(C(=O)Nc2cc(F)ccc2N2CCC[C@@H]2CN)n1` [Example 3, (R)-N-(2-(2-(Aminomethyl)pyrrolidin-1-yl)-5-fluorophenyl)-2-(2-fluoro-6-methoxyphenyl)pyrimidine-4-carboxamide], for which the Ki was less than 100 nM.

In turn, `COc1cccc(F)c1-c1nccc(C(=O)Nc2cc(F)ccc2N2CCC[C@@H]2CO)n1` [Example 4, (R)-N-(5-Fluoro-2-(2-(hydroxymethyl)pyrrolidin-1-yl)phenyl)-2-(2-fluoro-6-methoxyphenyl)pyrimidine-4-carboxamide] gave a Ki of less than 100 nM. As for `COC[C@H]1CCCN1c1ccc(F)cc1NC(=O)c1ccnc(-c2c(F)cccc2OC)n1` [Example 5, (R)-N-(5-Fluoro-2-(2-(methoxymethyl)pyrrolidin-1-yl)phenyl)-2-(2-fluoro-6-methoxyphenyl)pyrimidine-4-carboxamide], the figure is 100 to 500 nM; as for `COc1cccc(F)c1-c1nccc(C(=O)Nc2cc(F)ccc2N2C[C@@H](O)C[C@@H]2C)n1` [Example 7, N-(5-Fluoro-2-((2S,4S)-4-hydroxy-2-methylpyrrolidin-1-yl)phenyl)-2-(2-fluoro-6-methoxyphenyl)pyrimidine-4-carboxamide], less than 100 nM. Molecule `COc1cccc(F)c1-c1nccc(C(=O)Nc2cc(F)ccc2N2CCCC2c2ccccn2)n1` (stereo not drawn) [Example 8, N-(5-Fluoro-2-(2-(pytidin-2-yl)pyrrolidin-1-yl)phenyl)-2-(2-fluoro-6-methoxyphenyl)pyrimidine-4-carboxamide] came in with a Ki of 500 to 5000 nM. For `COc1cccc(F)c1-c1nccc(C(=O)Nc2cc(F)ccc2N2CCC3CNCC32)n1` (stereo not drawn) [Example 9, N-(5-Fluoro-2-(hexahydropyrrolo[3,4-b]pyrrol-1(2H)-yl)phenyl)-2-(2-fluoro-6-methoxyphenyl)pyrimidine-4-carboxamide] the value was 500 to 5000 nM. For `COc1cccc(F)c1-c1nccc(C(=O)Nc2cc(F)ccc2N2CCNC[C@H]2C)n1` [Example 10] the value was less than 100 nM; for `COc1cccc(F)c1-c1nccc(C(=O)Nc2cc(F)ccc2N2CCNC[C@@H]2CO)n1` [Example 11, (R)-N-(5-Fluoro-2-(2-(hydroxymethyl)piperazin-1-yl)phenyl)-2-(2-fluoro-6-methoxyphenyl)pyrimidine-4-carboxamide], less than 100 nM. As for `COc1cccc(F)c1-c1nccc(C(=O)Nc2cc(F)ccc2N2CCOCC2CO)n1` (stereo not drawn) [Example 12, N-(5-Fluoro-2-(3-(hydroxymethyl)morpholino)phenyl)-2-(2-fluoro-6-methoxyphenyl)pyrimidine-4-carboxamide], the figure is less than 100 nM. Turning to `COc1cccc(F)c1-c1nccc(C(=O)Nc2cc(F)cc(Br)c2N2C[C@H]3C[C@@H]2CN3)n1` [Example 13, N-(2-((1R,4R)-2,5-Diazabicyclo[2.2.1]heptan-2-yl)-3-bromo-5-fluorophenyl)-2-(2-fluoro-6-methoxyphenyl)pyrimidine-4-carboxamide], the Ki was less than 100 nM. `COc1cccc(F)c1-c1nccc(C(=O)Nc2cccc(C#N)c2N2C[C@H]3C[C@@H]2CN3)n1` [Example 14, N-(2-((1R,4R)-2,5-Diazabicyclo[2.2.1]heptan-2-yl)-3-cyanophenyl)-2-(2-fluoro-6-methoxyphenyl)pyrimidine-4-carboxamide] yielded a Ki of less than 100 nM. For `COc1cccc(F)c1-c1nccc(C(=O)Nc2cc(F)cc(-c3cccnc3)c2N2C[C@H]3C[C@@H]2CN3)n1` [Example 15, N-(2-((1R,4R)-2,5-Diazabicyclo[2.2.1]heptan-2-yl)-5-fluoro-3-(pyridin-3-yl)phenyl)-2-(2-fluoro-6-methoxyphenyl)pyrimidine-4-carboxamide] the value was less than 100 nM; for `COc1cccc(F)c1-c1nccc(C(=O)Nc2cc(F)cc(-c3cnn(C)c3)c2N2C[C@H]3C[C@@H]2CN3)n1` [Example 16, N-(2-((1R,4R)-2,5-Diazabicyclo[2.2.1]heptan-2-yl)-5-fluoro-3-(1-methyl-1H pyrazol-4-yl)phenyl)-2-(2-fluoro-6-methoxyphenyl)pyrimidine-4-carboxamide], less than 100 nM; for `COc1cccc(F)c1-c1nccc(C(=O)Nc2cc(F)c(CO)cc2N2C[C@@H]3C[C@H]2CN3)n1` [Example 17, N-(2-((1S,4S)-2,5-Diazabicyclo[2.2.1]heptan-2-yl)-5-fluoro-4-(hydroxymethyl)phenyl)-2-(2-fluoro-6-methoxyphenyl)pyrimidine-4-carboxamide], less than 100 nM. As for `COc1cccc(F)c1-c1nccc(C(=O)Nc2cc(F)c(Br)cc2N2C[C@@H]3C[C@H]2CN3)n1` [Example 18, N-(2-((1S,4S)-2,5-Diazabicyclo[2.2.1]heptan-2-yl)-4-bromo-5-fluorophenyl)-2-(2-fluoro-6-methoxyphenyl)pyrimidine-4-carboxamide], the figure is […]; as for `COc1cccc(F)c1-c1nccc(C(=O)Nc2cc(F)c(-c3cnn(C)c3)cc2N2C[C@@H]3C[C@H]2CN3)n1` [Example 19, N-(2-((1S,4S)-2,5-Diazabicyclo[2.2.1]heptan-2-yl)-5-fluoro-4-(1-methyl-1H-pyrazol-4-yl)phenyl)-2-(2-fluoro-6-methoxyphenyl)pyrimidine-4-carboxamide], […]; as for `COc1cccc(F)c1-c1nccc(C(=O)Nc2cc(F)c(-c3ccc(CO)nc3)cc2N2C[C@@H]3C[C@H]2CN3)n1` [Example 20, N-(2-((1S,4S)-2,5-Diazabicyclo[2.2.1]heptan-2-yl)-5-fluoro-4-(6-(hydroxymethyl)pyridin-3-yl)phenyl)-2-(2-fluoro-6-methoxyphenyl)pyrimidine-4-carboxamide], less than 100 nM. As for `COc1cccc(F)c1-c1nccc(C(=O)Nc2ccc(-c3c(C)nn(C)c3C)cc2N2C[C@@H]3C[C@H]2CN3)n1` [Example 27, N-(2-((1S,4S)-2,5-Diazabicyclo[2.2.1]heptan-2-yl)-4-(1,3,5-trimethyl-1H-pyrazol-4-yl)phenyl)-2-(2-fluoro-6-methoxyphenyl)pyrimidine-4-carboxamide], the Ki was less than 100 nM. The molecule `COc1cccc(F)c1-c1nccc(C(=O)Nc2cc(F)c(CN3CCOCC3)cc2N2C[C@@H]3C[C@H]2CN3)n1` [Example 30, N-(2-((1S,4S)-2,5-Diazabicyclo[2.2.1]heptan-2-yl)-5-fluoro-4-(morpholinomethyl)phenyl)-2-(2-fluoro-6-methoxyphenyl)pyrimidine-4-carboxamide] yielded a Ki of less than 100 nM. For `COc1cccc(F)c1-c1nccc(C(=O)Nc2cc(F)c(CNC3CCC3)cc2N2C[C@@H]3C[C@H]2CN3)n1` [Example 31, N-(2-((1S,4S)-2,5-Diazabicyclo[2.2.1]heptan-2-yl)-4-((cyclobutylamino)methyl)-5-fluorophenyl)-2-(2-fluoro-6-methoxyphenyl)pyrimidine-4-carboxamide] the value was less than 100 nM; for `CCN1C[C@H]2C[C@@H]1CN2c1ccc(F)cc1NC(=O)c1ccnc(-c2c(F)cccc2OC)n1` [Example 32, N-(2-((1R,4R)-5-Ethyl-2,5-diazabicyclo[2.2.1]heptan-2-yl)-5-fluorophenyl)-2-(2-fluoro-6-methoxyphenyl)pyrimidine-4-carboxamide], less than 100 nM.

`COc1cccc(F)c1-c1nccc(C(=O)Nc2cc(F)ccc2N2C[C@H]3C[C@@H]2CN3CCO)n1` [Example 33, N-(5-Fluoro-2-((1R,4R)-5-(2-hydroxyethyl)-2,5-diazabicyclo[2.2.1]heptan-2-yl)phenyl)-2-(2-fluoro-6-methoxyphenyl)pyrimidine-4-carboxamide] came in with a Ki of less than 100 nM. Molecule `CCCNC(=O)N1C[C@H]2C[C@@H]1CN2c1ccc(F)cc1NC(=O)c1ccnc(-c2c(F)cccc2OC)n1` [Example 34, (1R,4R)-5-(4-Fluoro-2-(2-(2-fluoro-6-methoxyphenyl)pyrimidine-4-carboxamido)phenyl)-N-propyl-2,5-diazabicyclo[2.2.1]heptane-2-carboxamide] showed a Ki of less than 100 nM. `COc1ccc(N2C[C@H]3C[C@@H]2CN3)c(NC(=O)c2ccnc(-c3c(F)cccc3OC)n2)c1` [Example 35, N-(2-((1R,4R)-2,5-Diazabicyclo[2.2.1]heptan-2-yl)-5-methoxyphenyl)-2-(2-fluoro-6-methoxyphenyl)pyrimidine-4-carboxamide] gave a Ki of less than 100 nM. `COc1cccc(F)c1-c1nccc(C(=O)Nc2cc(CO)ccc2N2C[C@H]3C[C@@H]2CN3)n1` [Example 36, N-(2-((1R,4R)-2,5-Diazabicyclo[2.2.1]heptan-2-yl)-5-(hydroxymethyl)phenyl)-2-(2-fluoro-6-methoxyphenyl)pyrimidine-4-carboxamide]: the Ki was less than 100 nM. Molecule `COc1cccc(F)c1-c1nccc(C(=O)Nc2cc(C#N)ccc2N2C[C@H]3C[C@@H]2CN3)n1` [Example 37, N-(2-((1R,4R)-2,5-Diazabicyclo[2.2.1]heptan-2-yl)-5-cyanophenyl)-2-(2-fluoro-6-methoxyphenyl)pyrimidine-4-carboxamide] came in with a Ki of 100 to 500 nM.

`COc1cccc(F)c1-c1nccc(C(=O)Nc2ccc(N3CCC3)cc2N2C[C@@H]3C[C@H]2CN3)n1` [Example 38, N-(4-(Azetidin-1-yl)-2-((1S,4S)-2,5-diazabicyclo[2.2.1]heptan-2-yl)phenyl)-2-(2-fluoro-6-methoxyphenyl)pyrimidine-4-carboxamide]: the Ki is less than 100 nM.
